Reference: US20240308960A1 (Sumitomo Pharma Co., Ltd., priority 2021, published 2024)

biological target: T1, Human orexin receptor type 2 (Homo sapiens, UniProt O43614); test: Test Example 1: agonist activity for orexin receptor type 2 (aequorin luminescence, intracellular calcium mobilization); conditions: compound 10 μm; CHO cells transiently expressing human orexin receptor type 2 and apoaequorin; relative percentage of luminescence for the luminescence (100%) of Orexin A (100 μM)
T1 sequence (O43614 1-444): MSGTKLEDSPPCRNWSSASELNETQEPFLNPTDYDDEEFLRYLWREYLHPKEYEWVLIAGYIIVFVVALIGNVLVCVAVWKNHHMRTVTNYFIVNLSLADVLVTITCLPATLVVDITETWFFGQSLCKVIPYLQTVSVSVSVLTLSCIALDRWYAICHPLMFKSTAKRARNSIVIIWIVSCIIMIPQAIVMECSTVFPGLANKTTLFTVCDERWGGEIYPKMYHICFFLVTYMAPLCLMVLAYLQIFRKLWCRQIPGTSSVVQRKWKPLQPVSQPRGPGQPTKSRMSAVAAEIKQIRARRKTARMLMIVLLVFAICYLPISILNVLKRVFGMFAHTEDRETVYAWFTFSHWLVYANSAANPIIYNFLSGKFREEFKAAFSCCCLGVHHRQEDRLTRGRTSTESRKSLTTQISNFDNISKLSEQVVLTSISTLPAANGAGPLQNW
Experimental: Human orexin receptor type 2 and apoaequorin were transiently expressed in CHO cells, and the agonist activity was evaluated based on intracellular calcium mobilization with ligand stimulation. The CHO cells transiently-expressed human orexin receptor type 2 and apoaequorin were seeded on a 384-well plate by 2,000 cells/well, and then incubated for 16-22 hours. After the plate was returned to room temperature, Coelenterazine hcp (final concentration: 1 μM) was added to the plate, and the plate was allowed to stand at room temperature for 2 hours. And then, Orexin A or each test compound was added to the plate, and the luminescence of the cells was measured with FDSS7000 (Hamamatsu Photonics K. K.), wherein Orexin A and each test compound were dissolved in DMSO (final concentration: 0.1%), and diluted with a buffer (Hanks, 20 mM HEPES, 0.1% BSA). The agonist activity of each test compound for orexin receptor type 2 was calculated as relative percentage of luminescence for the luminescence (100%) of Orexin A (100 μM).

Row | Agonist Activity (%) | SMILES
1 | 75% | Cc1ccc(C2CCN(C(=O)Nc3c(F)cccc3C3=CCN(C)C3)CC2)cc1 [Example 140, N-[2-fluoro-6-(1-methyl-2,5-dihydro-1H-pyrrol-3-yl)phenyl]-4-(4-methylphenyl)piperidine-1-carboxamide]
2 | 121% | CC(CF)N1CC=C(c2cccc(Cl)c2NC(=O)N2CCC(C)(c3cc(C4CC4)on3)CC2)CC1 (stereo not drawn) [Example 141, N-{2-chloro-6-[1-(1-fluoropropan-2-yl)-1,2,3,6-tetrahydropyridin-4-yl]phenyl}-4-(5-cyclopropyl-1,2-oxazol-3-yl)-4-methylpiperidine-1-carboxamide]
3 | 130% | CC(CF)N1CC=C(c2cccc(Cl)c2NC(=O)N2CCC(C)(c3noc(C4CC4)n3)CC2)CC1 (stereo not drawn) [Example 142, N-{2-chloro-6-[1-(1-fluoropropan-2-yl)-1,2,3,6-tetrahydropyridin-4-yl]phenyl}-4-(5-cyclopropyl-1,2,4-oxadiazol-3-yl)-4-methylpiperidine-1-carboxamide]
4 | 109% | CC(CF)N1CCC(c2cccc(Cl)c2NC(=O)N2CCC(C)(c3noc(C4CC4)n3)CC2)CC1 (stereo not drawn) [Example 143, N-{2-chloro-6-[1-(1-fluoropropan-2-yl)piperidin-4-yl]phenyl}-4-(5-cyclopropyl-1,2,4-oxadiazol-3-yl)-4-methylpiperidine-1-carboxamide]
5 | 148% | CC(C)N1CCC(c2cccc(Cl)c2NC(=O)N2CCC(C)(c3noc(C4CC4)n3)CC2)CC1 [Example 145, N-{2-chloro-6-[1-(propan-2-yl)piperidin-4-yl]phenyl}-4-(5-cyclopropyl-1,2,4-oxadiazol-3-yl)-4-methylpiperidine-1-carboxamide]
6 | 104% | CC1(c2noc(C3CC3)n2)CCN(C(=O)Nc2c(Cl)cccc2C2CCN(C3COC3)CC2)CC1 [Example 146, N-{2-chloro-6-[1-(oxetan-3-yl)piperidin-4-yl]phenyl}-4-(5-cyclopropyl-1,2,4-oxadiazol-3-yl)-4-methylpiperidine-1-carboxamide]
7 | 176% | Cc1ccc(C2(C)CCN(C(=O)Nc3c(Cl)cccc3C3CCN(C(C)C)CC3)CC2)cc1 [Example 148, N-{2-chloro-6-[1-(propan-2-yl)piperidin-4-yl]phenyl}-4-methyl-4-(4-methylphenyl)piperidine-1-carboxamide]
8 | 146% | CCN1C[C@@H]2C[C@H]1CN2c1cccc(F)c1NC(=O)N1CCC(C)(c2noc(C3CC3)n2)CC1 [Example 149, 4-(5-cyclopropyl-1,2,4-oxadiazol-3-yl)-N-{2-[(1S,4S)-5-ethyl-2,5-diazabicyclo[2.2.1]heptan-2-yl]-6-fluorophenyl}-4-methylpiperidine-1-carboxamide]
9 | 116% | Cc1ccc(C2CCN(C(=O)Nc3c(F)cccc3N3C[C@@H]4C[C@H]3CN4C(C)C)CC2)cc1 [Example 150, N-{2-fluoro-6-[(1S,4S)-5-(propan-2-yl)-2,5-diazabicyclo[2.2.1]heptan-2-yl]phenyl}-4-(4-methylphenyl)piperidine-1-carboxamide]
10 | 97% | Cc1ccc(C2CCN(C(=O)Nc3c(F)cccc3N3C[C@H]4C[C@@H]3CN4C(C)C)CC2)cc1 [Example 151, N-{2-fluoro-6-[(1R,4R)-5-(propan-2-yl)-2,5-diazabicyclo[2.2.1]heptan-2-yl]phenyl}-4-(4-methylphenyl)piperidine-1-carboxamide]

Row | SMILES | Agonist Activity (%)
11 | CC(C)N1CC=C(c2cccc(Cl)c2NC(=O)N2CCC(C)(c3cc(C4CC4)on3)CC2)CC1 [Example 144, N-{2-chloro-6-[1-(propan-2-yl)-1,2,3,6-tetrahydropyridin-4-yl]phenyl}-4-(5-cyclopropyl-1,2-oxazol-3-yl)-4-methylpiperidine-1-carboxamide] | 143%
12 | Cc1ccc(C2(C)CCN(C(=O)Nc3c(Cl)cccc3C3=CCN(C(C)C)CC3)CC2)cc1 [Example 147, N-{2-chloro-6-[1-(propan-2-yl)-1,2,3,6-tetrahydropyridin-4-yl]phenyl}-4-methyl-4-(4-methylphenyl)piperidine-1-carboxamide] | 167%
